This note sets out measurements from patent US12281107B2, “SET8 lysine methyltransferase inhibitor and preparation method and application thereof” (HAINAN YILING MEDICAL INDUSTRY & DEVELOPMENT Co., Ltd., priority 2019, dated 2025).

Each structure is given as a SMILES string.

Assay [1] concerns the target T1, lysine methyltransferase SET8 (Homo sapiens, UniProt Q9NQR1).
T1 construct: purchased Cayman Company
T1 sequence (Q9NQR1 1-393): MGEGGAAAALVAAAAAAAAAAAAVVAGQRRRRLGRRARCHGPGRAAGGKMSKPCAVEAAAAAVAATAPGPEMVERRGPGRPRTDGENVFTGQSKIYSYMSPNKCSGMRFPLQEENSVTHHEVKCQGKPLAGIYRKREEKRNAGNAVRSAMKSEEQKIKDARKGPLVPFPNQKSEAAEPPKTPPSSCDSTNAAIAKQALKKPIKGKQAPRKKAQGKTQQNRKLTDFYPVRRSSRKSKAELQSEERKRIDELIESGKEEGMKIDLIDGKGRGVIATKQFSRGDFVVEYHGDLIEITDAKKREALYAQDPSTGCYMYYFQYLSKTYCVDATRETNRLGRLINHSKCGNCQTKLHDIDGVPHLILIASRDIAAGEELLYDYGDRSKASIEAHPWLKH
Briefly: SET8 methyltransferase inhibitor screening assay kit (Cayman), fluorescence. The class given is biochemical. To be noted: incubation at 37° C. for 10 min; inhibitor concentration not given. The protocol: The steps of activity detection are completely based on the SET8 methyltransferase inhibitor screening assay kit of Cayman Company. In short, reagents in the kit are added to the 96-well plate to be tested according to the Table A below.
Then 10 μL of SET8 albumen protein is added to each well, and the reaction begins. After incubation at 37° C. for 10 min, the fluorescence intensity (A) value is measured at the excitation wavelength of 535 nm and the […] of 590 nm. the inhibition rate of the compound is calculated according to the following formula: Inhibition rate %=(Anormal−Asample)/)Normal*100%, and the inhibition rate of each inhibitor on lysine methyltransferase is shown in Table 1.

Another assay concerns glioma cell line SH-SY5Y. Description: CCK-8 cell proliferation inhibition test, SH-SY5Y. The class given is cell-based. To be noted: Homo sapiens, 48 h; for inhibition at 100 µM: read-out: IC % for 100 μM; for IC50: CCK-8. Here is the method: (§1) 1. Experimental Method: […] cell line SH-SY5Y, colorectal cancer cell line SW480 and liver cancer cell line HepG2 are respectively cultured in an RPMI-1640 medium containing 10% calf serum at 37° C. in a 5% CO2 incubator. The […] method is adopted for cell proliferation inhibition test, and the main operation is as follows: taking the tumor cell line in the logarithmic phase, digesting with 0.25% trypsin, preparing an RPMI-1640 medium containing 10% newborn calf serum into a cell suspension of 6×10^4 cells/mL, and inoculating the cell suspension into a 96-well plate, with 100 μL per well. Culturing at 37° C. and 5% CO2 saturated humidity for 12 h. After adherence, absorbing the culture supernatants in the wells, and adding the sample solution prepared from the RPMI-1640 medium containing 1% calf serum to each well so that the final concentrations of the samples are 100 μM, 30 μM, 10 μM, 3 μM, 1 μM, and 0.3 μM respectively. With 3 wells in parallel for each concentration, continuing culturing for 48 h, then adding 10 μL of CCK-8 solution (Dalian Meilun, MA0218) to each well, and continuing incubating at 37° C. and 5% CO2 for 4 h. Selecting 470 nm on the enzyme-linked immunosorbent assay apparatus to measure the light absorption value of each well, and setting a blank group (only adding a culture solution containing cells) and a control group (using the culture solution to replace drugs) to calculate the cell proliferation inhibition rate. Inhibition rate (%)=(1−average OD value of 3 wells in experimental group/average OD value of 3 wells in control group)×100%. With the inhibition rate as an ordinate, a regression curve is drawn to calculate the IC50 value of the sample. Graphpad prism 7.0 software are adopted for data processing and statistical analysis by.

The subject of assay [2] is liver cancer cell line HepG2. Description: CCK-8 cell proliferation inhibition test, HepG2. The class given is cell-based. The note with it: for IC % for 100 μM: HepG2, 100 μM, 48 h; for tumor cell proliferation inhibitory activity (in words): HepG2, summary of Table 2; for IC50: Homo sapiens, HepG2, 48 h, CCK-8. The protocol: as §1
The test system of assay [3] is colorectal cancer cell line SW480. Briefly: CCK-8 cell proliferation inhibition test, SW480. The class given is cell-based. To be noted: for IC50: Homo sapiens, SW480, 48 h, CCK-8; for IC % for 100 μM: SW480, 100 μM, 48 h; for tumor cell proliferation inhibitory activity (in words): SW480, summary of Table 2. The protocol:
as §1

`Cc1ccc(-c2nc(C3CNCCO3)n(C3CCN(C)CC3)n2)cc1` (stereo not drawn) [Compound 16, 2-(1-(1-methylpiperidin-4-yl)-3-(p-methylphenyl)-1H-1,2,4-triazol-5-yl)morpholine]: in assay [1], the “Inhibition Rate (%)” value stood at 54.8%. Moreover, in the assay on glioma cell line SH-SY5Y, the inhibition at 100 µM amounted to 52.8% and half-maximal inhibition (IC50) required 93.7 µM.

In the case of `COc1ccc(Cc2nc(C(C)(C)C)n(C3CCN(C)CC3)n2)cc1` [Compound 19], the “Inhibition Rate (%)” value in assay [1] is 45.2%. Further, in the assay with glioma cell line SH-SY5Y, the inhibition at 100 µM was found to be 44.8% and inhibition was half-maximal at 118 µM (IC50).

As for `COc1ccc(Cc2nc(C3CNCCO3)n(-c3cnccn3)n2)cc1` (stereo not drawn) [Compound 7, 2-(3-(4-methoxybenzyl)-1-(pyrazin-2-yl)-1H-1,2,4-triazol-5-yl)morpholine], the “Inhibition Rate (%)” value in assay [1] is reported as 70.8%. For the same molecule, in the assay with glioma cell line SH-SY5Y, the inhibition at 100 µM was determined as 57.9% and half-maximal inhibition (IC50) was put at 78.4 µM.

As to `COc1ccc(Cc2nc(C3CCCCO3)n(Cc3ccc(OC)cc3)n2)cc1` (stereo not drawn) [Compound 12, 1,3-bis(4-methoxybenzyl)-5-(tetrahydro-2H-pyran-2-yl)-1H-1,2,4-triazole], the “Inhibition Rate (%)” value in assay [1] came to 67.8%. In the assay on glioma cell line SH-SY5Y, the inhibition at 100 µM came out at 60.1% and the IC50 was 71.8 µM.

As for `COc1ccc(Cc2nc(C3CNCCO3)n(C3CCN(C)CC3)n2)cc1` (stereo not drawn) [Compound 1, 2-(3-(4-methoxybenzyl)-1-(1-methylpiperidin-4-yl)-1H-1,2,4-triazol-5-yl)morpholine], the “Inhibition Rate (%)” value in assay [1] amounted to 58.4%. Moreover, in the assay on glioma cell line SH-SY5Y, the inhibition at 100 µM came to 52.5% and half-maximal inhibition (IC50) required 94.7 µM.

For the molecule `COc1ccc(Cc2nc(CN)n(C3CCN(C)CC3)n2)cc1` [Compound 11, (3-(4-methoxybenzyl)-1-(1-methylpiperidin-4-yl)-1H-1,2,4-triazol-5-yl)methylamine], the “Inhibition Rate (%)” value in assay [1] was found to be 36.8%. Further, in the assay with glioma cell line SH-SY5Y, the inhibition at 100 µM is 39.9% and it took 132 µM to reach half-maximal inhibition (IC50).

With `COc1ccc(Cc2nc(C3CNCCO3)n(-c3ccccn3)n2)cc1` (stereo not drawn) [Compound 6, 2-(3-(4-methoxybenzyl)-1-(pyridin-2-yl)-1H-1,2,4-triazol-5-yl)morpholine], the “Inhibition Rate (%)” value in assay [1] turned out to be 70.3%. Besides, in the assay on glioma cell line SH-SY5Y, the inhibition at 100 µM is 58.6% and the half-inhibitory concentration (IC50) is 76.5 µM.

`COc1ccc(Cc2nc(C3CNCCO3)n(-c3ccccc3)n2)cc1` (stereo not drawn) [Compound 4, 2-(3-(4-methoxybenzyl)-1-phenyl-1H-1,2,4-triazol-5-yl)morpholine]: the “Inhibition Rate (%)” value in assay [1] is 71.5%. In the assay on glioma cell line SH-SY5Y, the inhibition at 100 µM turned out to be 57.8% and 78.6 µM corresponded to half-maximal inhibition (IC50).

Take `COc1ccc(Cc2nc(C)n(C3CCN(C)CC3)n2)cc1` [Compound 20]: in assay [2], the “IC % for 100 μM” value came to 68.7%, the “tumor cell proliferation inhibitory activity (in words)” value is given as “good tumor cell proliferation inhibitory activity” and half-maximal inhibition (IC50) required 13.6 µM. The “Inhibition Rate (%)” value in assay [1] is on record as 76.9%. In the assay with glioma cell line SH-SY5Y, the inhibition at 100 µM came to 84.7% and the IC50 turned out to be 10.4 µM. Also, in assay [3], the IC50 came out at 11.3 µM, the “IC % for 100 μM” value is on record as 79.6% and the “tumor cell proliferation inhibitory activity (in words)” value is reported as “good tumor cell proliferation inhibitory activity”.

In the case of `COc1ccc(Cc2nc(C3CNCCO3)n(Cc3ccc(OC)cc3)n2)cc1` (stereo not drawn) [Compound 2, 2-(1,3-bis(4-methoxybenzyl)-1H-1,2,4-triazol-5-yl)morpholine], in assay [2], the “IC % for 100 μM” value came to 51.5%, the “tumor cell proliferation inhibitory activity (in words)” value is listed as “good tumor cell proliferation inhibitory activity” and 17.6 µM corresponded to half-maximal inhibition (IC50). Moreover, the “Inhibition Rate (%)” value in assay [1] was 74.2%. For the same molecule, in the assay with glioma cell line SH-SY5Y, the inhibition at 100 µM was 78.3% and half-maximal inhibition (IC50) required 13.7 µM. Further, in assay [3], inhibition was half-maximal at 16.4 µM (IC50), the “IC % for 100 μM” value is listed as 75.8% and the “tumor cell proliferation inhibitory activity (in words)” value was “good tumor cell proliferation inhibitory activity”.

With `COc1ccc(Cc2nc(C3CCCCO3)n(C3CCN(C)CC3)n2)cc1` (stereo not drawn) [Compound 10, 4-(3-(4-methoxybenzyl)-5-(tetrahydro-2H-pyran-2-yl)-1H-1,2,4-triazol-5-yl)-1-methylpiperidin], the “Inhibition Rate (%)” value in assay [1] worked out at 43.6%. Besides, in the assay with glioma cell line SH-SY5Y, the inhibition at 100 µM is 43.3% and half-maximal inhibition (IC50) was put at 123 µM.

With `COc1ccc(Cn2nc(-c3ccccc3)nc2C2CNCCO2)cc1` (stereo not drawn) [Compound 13, 2-(1-(4-methoxybenzyl)-3-phenyl-1H-1,2,4-triazol-5-yl)morpholine], the “Inhibition Rate (%)” value in assay [1] was 32.5%. In the assay on glioma cell line SH-SY5Y, the inhibition at 100 µM worked out at 37.8% and the IC50 came out at 138 µM.

Regarding `COc1ccc(Cc2nc(C3CN(Cc4ccccc4)CCO3)n(C3CCN(C)CC3)n2)cc1` (stereo not drawn) [Compound 9, 4-benzyl-2-(3-(4-methoxybenzyl)-1-(1-methylpiperidin-4-yl)-1H-1,2,4-triazol-5-yl)morpholine], in assay [1], the “Inhibition Rate (%)” value was 72.3%. In the assay on glioma cell line SH-SY5Y, the inhibition at 100 µM came to 58.5% and the IC50 is 77.3 µM.

Regarding `CN1CCC(n2nc(-c3ccccc3)nc2C2CNCCO2)CC1` (stereo not drawn) [Compound 15, 2-(1-(1-methylpiperidin-4-yl)-3-phenyl-1H-1,2,4-triazol-5-yl)morpholine], the “Inhibition Rate (%)” value in assay [1] amounted to 53.9%. In addition, in the assay with glioma cell line SH-SY5Y, the inhibition at 100 µM came out at 52.3% and the midpoint of inhibition, the IC50, lay at 95.3 µM.

`Cc1cccc(-c2nc(C3CNCCO3)n(C3CCN(C)CC3)n2)c1` (stereo not drawn) [Compound 17, 2-(1-(1-methylpiperidin-4-yl)-3-(m-methylphenyl)-1H-1,2,4-triazol-5-yl)morpholine]: the “Inhibition Rate (%)” value in assay [1] is given as 58.3%. Also, in the assay with glioma cell line SH-SY5Y, the inhibition at 100 µM is 53.7% and it took 92.1 µM to reach half-maximal inhibition (IC50).

With `COc1ccc(Cc2nc(C3CNCCO3)n(-c3cccc(C)c3)n2)cc1` (stereo not drawn) [Compound 5, 2-(3-(4-methoxybenzyl)-1-(m-methylphenyl)-1H-1,2,4-triazol-5-yl)morpholine], the “Inhibition Rate (%)” value in assay [1] was found to be 70.2%. For the same molecule, in the assay on glioma cell line SH-SY5Y, the inhibition at 100 µM amounted to 57.1% and the midpoint of inhibition, the IC50, lay at 81.3 µM.

`CN1CCC(n2nc(Cc3ccccc3)nc2C2CNCCO2)CC1` (stereo not drawn) [Compound 14, 2-(3-benzyl-1-(1-methylpiperidin-4-yl)-1H-1,2,4-triazol-5-yl)morpholine]: in assay [1], the “Inhibition Rate (%)” value is reported as 59.2%. In addition, in the assay with glioma cell line SH-SY5Y, the inhibition at 100 µM turned out to be 53.2% and the IC50 turned out to be 92.5 µM.

Consider `COc1ccc(Cc2nc(C3CNCCO3)n(C)n2)cc1` (stereo not drawn) [Compound 8, 2-(3-(4-methoxybenzyl)-1-methyl-1H-1,2,4-triazol-5-yl)morpholine], for which the “Inhibition Rate (%)” value in assay [1] was determined as 69.3%. For the same molecule, in the assay on glioma cell line SH-SY5Y, the inhibition at 100 µM is 59.5% and the IC50 was determined as 73.1 µM.

In the case of `COc1ccc(Cc2nc(C3CCCCC3)n(Cc3ccc(OC)cc3)n2)cc1` [Compound 21, 5-cyclohexyl-1,3-dis(4-methoxybenzyl)-1H-1,2,4-triazole], the “Inhibition Rate (%)” value in assay [1] is listed as 43.7%. Moreover, in the assay on glioma cell line SH-SY5Y, the inhibition at 100 µM is 46.2% and the half-inhibitory concentration (IC50) is 114 µM.

On to `COc1ccc(Cc2nc(C3CCCCC3)n(C3CCN(C)CC3)n2)cc1` [Compound 18, 4-(5-cyclohexyl-3-(4-methoxybenzyl)-1H-1,2,4-triazol-5-yl)-1-methylpiperidin], for which the “Inhibition Rate (%)” value in assay [1] was 43.8%. Moreover, in the assay on glioma cell line SH-SY5Y, the inhibition at 100 µM was 41.9% and the IC50 amounted to 126 µM.
